Results reported in US8293529B2, “Method for inducing differentiation of pluripotent stem cells into cardiomyocytes” (Daiichi Sankyo Company, Limited, priority 2006, dated 2012).

Key:
[1] = system: mouse ES cells; experiment: Appearance rate of EBs exhibiting spontaneous beating; assay type: cell-based
Method: Culture for inducing differentiation of ES cells into cardiomyocytes or neurons was accomplished in a routine manner as follows. ES cells were suspended in LIF-free medium, and the resulting suspension was seeded at 500 cells/50 μL per well of a commercially available 96-well culture plate for spheroid formation (Sumilon Celltight Spheroid; Sumitomo Bakelite Co., Ltd., Japan).
In the early stage of differentiation in ES cells, transient elevations in expression of various Wnt genes were observed prior to the appearance of cardiomyocytes. Then, ES cells at this stage were treated with recombinant Wnt proteins to study the myocardial differentiation-inducing effect of the proteins. Induction of ES cell differentiation was accomplished in the same manner as used in Example 1, except that some of the experimental groups were cultured in medium containing a commercially available recombinant WNT-1 (Peprotech), Wnt-3a (R&D systems) or Wnt-5a (R&D systems) protein. Treatment of ES cells in medium supplemented with a recombinant protein of canonical Wnt such as WNT-1 is hereinafter referred to as “Wnt treatment.”
The above canonical Wnt protein treatment is known to inhibit the action of GSK3β within cells and thereby promote stabilization of β-catenin and its transcription activation ability. Then, further studies were performed to confirm that treatment with various drugs capable of promoting stabilization of β-catenin and its transcription activation ability produced a myocardial differentiation-inducing effect on ES cells, as in the case of Wnt treatment. As drugs capable of promoting stabilization of β-catenin and its transcription activation ability, the following five commercially available compounds were used: GSK3β inhibitors BIO (Calbiochem), GSK3β inhibitor VII (Calbiochem), cell-permeable GSK3β peptide inhibitor (L803-mts; Calbiochem) and SB216763 (Biomol), as well as a Wnt agonist (Calbiochem) that promotes the transcription activation ability of β-catenin without GSK3β inhibition. ES cells were induced to differentiate in the same manner as used in the above Examples, and cultured in medium containing the above compounds during the time period between 48 and 120 hours ([…]) after induction of differentiation, as in the case of recombinant Wnt proteins.

[2] = system: cmES cells; experiment: Marker gene expression in EBs from cmES cells (RT-PCR); assay type: cell-based, common marmoset; settings: EBs at 10 days after induction; vs untreated group
Method: The EBs thus prepared were collected periodically, and total RNA was prepared with an RNeasy mini kit (Qiagen). cDNA was then synthesized with reverse transcriptase and analyzed by PCR to detect expression of common marmoset Wnt-3 gene (cmWnt-3) and β-actin (cmβActin) serving as an endogenous control. The primers used for detection are as shown below.
Moreover, for analysis of expressed genes, EBs were collected at 10 days after induction of differentiation to detect expression of various marker genes in the same manner as used in Example 5. The primers used for detection of common marmoset Nestin, ANP, MLC-2a and MLC-2v transcripts (hereinafter referred to as cmNestin, cmANP, cmMLC-2a and cmMLC-2v, respectively) are as shown below.

[3] = system: cmES cells; experiment: Immunohistochemical staining of marker proteins in EBs from cmES cells; assay type: cell-based, common marmoset; settings: EBs at 16 days after induction of differentiation
Method: Subsequently, immunohistochemical staining was performed in the same manner as used in Example 2 to confirm that beating cells developed in EBs from the Wnt-treated groups were cardiomyocytes producing specific marker proteins. From EBs in the Wnt-treated groups (Wnt-3a, WNT-1) at 16 days after induction of differentiation, frozen sections were prepared and reacted with anti-sarcomeric myosin antibody, anti-GATA-4 antibody or anti-Nkx-2.5 antibody as a primary antibody. After color reaction, these sections were observed under an optical microscope.

[4] = system: mouse ES cells; settings: added for 3 days after initiation of differentiation induction (Naito et al.); cited from earlier work

Wnt-3a
occurrence of beating EBs ([1]; Wnt proteins added at 10 ng/mL to 50 ng/mL): very good occurrence of beating EBs
appearance rate of beating EBs ([1]; recombinant protein added at 1 ng/mL to 100 ng/mL): significantly higher than in the untreated group
promoting effect on differentiation ([1]; similar studies by the applicant, added for 3 days after initiation of induction (Example 2)): no significant promoting effect on differentiation
expression of cardiomyocyte marker genes cmANP, cmMLC-2a and cmMLC-2v [2]: significantly stronger expression
cells positive for sarcomeric myosin, GATA-4 and Nkx-2.5 [3]: the great majority of EB-constituting cells were found to be positive
effect on myocardial differentiation from ES cells [4]: promote myocardial differentiation from ES cells
